The term EC50 denotes the concentration at which the effect is half-maximal. In general, inhibition refers to the change of the read-out against control, counted positive when it falls.

The source of these data is US12708604B2, “Lyophilized preparation of prostaglandin E1 methyl ester for injection and production and use thereof” (Xi'an Hanfeng Pharmaceutical Co., Ltd., priority 2018, dated 2026).

Read-outs that look alike come from different tables or passages of the source.

Experiment [1] concerns isolated rabbit blood vessels (thoracic aorta vascular ring). The experiment can be described thus: Vasodilation test in vitro (isolated aortic ring). The note with it: Oryctolagus cuniculus; cumulative addition 0.05-25.6 nM; read-out: diastolic efficacy on isolated rabbit blood vessels, EC50. The class given is cell-based, New Zealand white rabbits. As to the method:
In the experiment, rabbits were selected to prepare isolated aortic ring specimens: New Zealand white rabbits, male, weighing (2.5±0.3) kg. The rabbit was stunned with a blunt instrument, fixed on the rabbit dissecting table, and the thoracic aorta was quickly separated, and placed in a petri dish filled with saturated Kerbs solution (containing NaCl 6.9 g, KCl 0.35 g, MgSO4.7H2O 0.29 g, KH2PO4 0.16 g, NaHCO3 2.1 g, CaCl2 0.28 g, glucose 2 g per 1000 mL) at 37° C. and continuously introduced with mixed gas (95% O2, 5% CO2). The remaining blood in the blood vessel was squeezed out, and the peripheral fat and connective tissue were carefully peeled off, and it was cut into 0.5 cm long arterial rings for use. […]
BL-420S biological function experiment system (Chengdu Techman Technology) was used to record the variation of vascular ring tension. After the vascular ring contraction was stable, prostaglandin E1 and the compounds of the Examples were accumulatively added to successively increase the final mass concentration of prostaglandin E1 in the bath tube to 0.05, 0.1, 0.2, 0.4, 0.8, 1.6, 3.2, 6.4, 12.8, 25.6 nM, and the diastolic efficacies of the vascular ring were recorded.

The test system of experiment [2] is ADP-induced platelet aggregation. Description: Anti-platelet aggregation test in vitro (ADP-induced, rat platelet-rich plasma). The class given is cell-based, SD rats. The note with it: for inhibition at 100 µM: Platelet, 2 μL of 100 μM compound in 300 μL rat PRP, read-out: inhibition rate on ADP-induced platelet aggregation; for onset of anti-aggregation effect after addition to PRP: immediately after addition. As for the experimental part: When healthy adult SD rats were anesthetized by intraperitoneal injection of 10% chloral hydrate, fresh whole blood was collected from the abdominal aorta and added to a centrifuge tube anticoagulated with 3.8% sodium citrate solution, and centrifuged at 900 rpm for 10 minutes to remove the upper platelet-rich plasma (PRP) for use. The tube having PRP removed was further centrifuged at 4000 rpm for 10 minutes, and the upper clarified plasma (PPP) was removed for use. In the experiment, Techlink model LBY-NJ4 4-channel platelet aggregator was used to determine the anticoagulant efficacy of each compound.
Into a sample cup containing 300 μL of PRP, 2 μL of 100 μM PGE1, Compound 1 of Example, Compound 2 of Example and methanol (solvent) were first added. After incubated for different periods (0, 1, 2, 4, 7, 10, 15 min), […], of aggregation inducer 180 μM ADP solution was added. The aggregation rate of each sample was measured, and the inhibitory rate of the compound on ADP-induced platelet aggregation was calculated. Inhibition rate %=(solvent aggregation rate−compound aggregation rate)/solvent aggregation rate×100%

Setting [3] is: 10 min, after 10 minutes of incubation.

For the compound `CCCCC[C@H](O)/C=C/[C@H]1[C@H](O)CC(=O)[C@@H]1CCCCCCC(=O)OC` [Compound 1], in experiment [1], the EC50 was determined as 1.09 nM. Moreover, the inhibition at 100 µM in experiment [2] (setting [3]) was determined as 43.7%. Further, the “onset of anti-aggregation effect after addition to PRP” value (“onset of anti-aggregation effect” below) in experiment [2] (rat PRP) is listed as “take effect immediately”. For the same compound, the “duration of anticoagulant effect relative to PGE1” value in experiment [2] (rat PRP, versus PGE1) was determined as 2 times.

For the compound `CCCCC[C@H](O)/C=C/[C@H]1[C@H](O)CC(=O)[C@@H]1CCCCCCC(=O)OCC` [Compound 2], the inhibition at 100 µM in experiment [2] (setting [3]) is 51.9%. Moreover, the “onset of anti-aggregation effect” value in experiment [2] (rat PRP) was “does not take effect immediately”.

With `CCCCC[C@H](O)/C=C/[C@H]1[C@H](O)CC(=O)[C@@H]1CCCCCCC(=O)O` [PGE1, Prostaglandin E1], in experiment [1], the EC50 is 9.77 nM. Further, the inhibition at 100 µM in experiment [2] (4 min, after 4 minutes of incubation) stood at 4.93%. Further, in experiment [2] (rat PRP), the “onset of anti-aggregation effect” value is reported as “take effect immediately”.
